Laboratory results reported in publication PMC10726367 (Journal of Medicinal Chemistry, 2023).
“Also recorded” adds a separate entry of the source.

Columns and labels:
RyR2 = target: T1, RyR2 (Mus musculus, UniProt E9Q401); assay: Time-lapse [Ca2+]ER assay (RyR2 R-CEPIA1er assay) in HEK-293 cells with inducible WT RyR2; assay type: cell-based; conditions: for RyR2 effect class: 25 μM (S107 1 mM per Figure 2); for RyR2 effect class / EC50: HEK-293 RyR2 R-CEPIA1er cells; for EC50: value, interval; for effect on [Ca2+]ER / R-CEPIA1er fluorescence (F/F0): 25 μM, vs 0.1 v/v% DMSO
T1 construct: expressed in transfected cells; host or cells: HEK-293 cells stably expressing R-CEPIA1er with doxycycline-inducible WT RyR2
T1 sequence (E9Q401 whole entry): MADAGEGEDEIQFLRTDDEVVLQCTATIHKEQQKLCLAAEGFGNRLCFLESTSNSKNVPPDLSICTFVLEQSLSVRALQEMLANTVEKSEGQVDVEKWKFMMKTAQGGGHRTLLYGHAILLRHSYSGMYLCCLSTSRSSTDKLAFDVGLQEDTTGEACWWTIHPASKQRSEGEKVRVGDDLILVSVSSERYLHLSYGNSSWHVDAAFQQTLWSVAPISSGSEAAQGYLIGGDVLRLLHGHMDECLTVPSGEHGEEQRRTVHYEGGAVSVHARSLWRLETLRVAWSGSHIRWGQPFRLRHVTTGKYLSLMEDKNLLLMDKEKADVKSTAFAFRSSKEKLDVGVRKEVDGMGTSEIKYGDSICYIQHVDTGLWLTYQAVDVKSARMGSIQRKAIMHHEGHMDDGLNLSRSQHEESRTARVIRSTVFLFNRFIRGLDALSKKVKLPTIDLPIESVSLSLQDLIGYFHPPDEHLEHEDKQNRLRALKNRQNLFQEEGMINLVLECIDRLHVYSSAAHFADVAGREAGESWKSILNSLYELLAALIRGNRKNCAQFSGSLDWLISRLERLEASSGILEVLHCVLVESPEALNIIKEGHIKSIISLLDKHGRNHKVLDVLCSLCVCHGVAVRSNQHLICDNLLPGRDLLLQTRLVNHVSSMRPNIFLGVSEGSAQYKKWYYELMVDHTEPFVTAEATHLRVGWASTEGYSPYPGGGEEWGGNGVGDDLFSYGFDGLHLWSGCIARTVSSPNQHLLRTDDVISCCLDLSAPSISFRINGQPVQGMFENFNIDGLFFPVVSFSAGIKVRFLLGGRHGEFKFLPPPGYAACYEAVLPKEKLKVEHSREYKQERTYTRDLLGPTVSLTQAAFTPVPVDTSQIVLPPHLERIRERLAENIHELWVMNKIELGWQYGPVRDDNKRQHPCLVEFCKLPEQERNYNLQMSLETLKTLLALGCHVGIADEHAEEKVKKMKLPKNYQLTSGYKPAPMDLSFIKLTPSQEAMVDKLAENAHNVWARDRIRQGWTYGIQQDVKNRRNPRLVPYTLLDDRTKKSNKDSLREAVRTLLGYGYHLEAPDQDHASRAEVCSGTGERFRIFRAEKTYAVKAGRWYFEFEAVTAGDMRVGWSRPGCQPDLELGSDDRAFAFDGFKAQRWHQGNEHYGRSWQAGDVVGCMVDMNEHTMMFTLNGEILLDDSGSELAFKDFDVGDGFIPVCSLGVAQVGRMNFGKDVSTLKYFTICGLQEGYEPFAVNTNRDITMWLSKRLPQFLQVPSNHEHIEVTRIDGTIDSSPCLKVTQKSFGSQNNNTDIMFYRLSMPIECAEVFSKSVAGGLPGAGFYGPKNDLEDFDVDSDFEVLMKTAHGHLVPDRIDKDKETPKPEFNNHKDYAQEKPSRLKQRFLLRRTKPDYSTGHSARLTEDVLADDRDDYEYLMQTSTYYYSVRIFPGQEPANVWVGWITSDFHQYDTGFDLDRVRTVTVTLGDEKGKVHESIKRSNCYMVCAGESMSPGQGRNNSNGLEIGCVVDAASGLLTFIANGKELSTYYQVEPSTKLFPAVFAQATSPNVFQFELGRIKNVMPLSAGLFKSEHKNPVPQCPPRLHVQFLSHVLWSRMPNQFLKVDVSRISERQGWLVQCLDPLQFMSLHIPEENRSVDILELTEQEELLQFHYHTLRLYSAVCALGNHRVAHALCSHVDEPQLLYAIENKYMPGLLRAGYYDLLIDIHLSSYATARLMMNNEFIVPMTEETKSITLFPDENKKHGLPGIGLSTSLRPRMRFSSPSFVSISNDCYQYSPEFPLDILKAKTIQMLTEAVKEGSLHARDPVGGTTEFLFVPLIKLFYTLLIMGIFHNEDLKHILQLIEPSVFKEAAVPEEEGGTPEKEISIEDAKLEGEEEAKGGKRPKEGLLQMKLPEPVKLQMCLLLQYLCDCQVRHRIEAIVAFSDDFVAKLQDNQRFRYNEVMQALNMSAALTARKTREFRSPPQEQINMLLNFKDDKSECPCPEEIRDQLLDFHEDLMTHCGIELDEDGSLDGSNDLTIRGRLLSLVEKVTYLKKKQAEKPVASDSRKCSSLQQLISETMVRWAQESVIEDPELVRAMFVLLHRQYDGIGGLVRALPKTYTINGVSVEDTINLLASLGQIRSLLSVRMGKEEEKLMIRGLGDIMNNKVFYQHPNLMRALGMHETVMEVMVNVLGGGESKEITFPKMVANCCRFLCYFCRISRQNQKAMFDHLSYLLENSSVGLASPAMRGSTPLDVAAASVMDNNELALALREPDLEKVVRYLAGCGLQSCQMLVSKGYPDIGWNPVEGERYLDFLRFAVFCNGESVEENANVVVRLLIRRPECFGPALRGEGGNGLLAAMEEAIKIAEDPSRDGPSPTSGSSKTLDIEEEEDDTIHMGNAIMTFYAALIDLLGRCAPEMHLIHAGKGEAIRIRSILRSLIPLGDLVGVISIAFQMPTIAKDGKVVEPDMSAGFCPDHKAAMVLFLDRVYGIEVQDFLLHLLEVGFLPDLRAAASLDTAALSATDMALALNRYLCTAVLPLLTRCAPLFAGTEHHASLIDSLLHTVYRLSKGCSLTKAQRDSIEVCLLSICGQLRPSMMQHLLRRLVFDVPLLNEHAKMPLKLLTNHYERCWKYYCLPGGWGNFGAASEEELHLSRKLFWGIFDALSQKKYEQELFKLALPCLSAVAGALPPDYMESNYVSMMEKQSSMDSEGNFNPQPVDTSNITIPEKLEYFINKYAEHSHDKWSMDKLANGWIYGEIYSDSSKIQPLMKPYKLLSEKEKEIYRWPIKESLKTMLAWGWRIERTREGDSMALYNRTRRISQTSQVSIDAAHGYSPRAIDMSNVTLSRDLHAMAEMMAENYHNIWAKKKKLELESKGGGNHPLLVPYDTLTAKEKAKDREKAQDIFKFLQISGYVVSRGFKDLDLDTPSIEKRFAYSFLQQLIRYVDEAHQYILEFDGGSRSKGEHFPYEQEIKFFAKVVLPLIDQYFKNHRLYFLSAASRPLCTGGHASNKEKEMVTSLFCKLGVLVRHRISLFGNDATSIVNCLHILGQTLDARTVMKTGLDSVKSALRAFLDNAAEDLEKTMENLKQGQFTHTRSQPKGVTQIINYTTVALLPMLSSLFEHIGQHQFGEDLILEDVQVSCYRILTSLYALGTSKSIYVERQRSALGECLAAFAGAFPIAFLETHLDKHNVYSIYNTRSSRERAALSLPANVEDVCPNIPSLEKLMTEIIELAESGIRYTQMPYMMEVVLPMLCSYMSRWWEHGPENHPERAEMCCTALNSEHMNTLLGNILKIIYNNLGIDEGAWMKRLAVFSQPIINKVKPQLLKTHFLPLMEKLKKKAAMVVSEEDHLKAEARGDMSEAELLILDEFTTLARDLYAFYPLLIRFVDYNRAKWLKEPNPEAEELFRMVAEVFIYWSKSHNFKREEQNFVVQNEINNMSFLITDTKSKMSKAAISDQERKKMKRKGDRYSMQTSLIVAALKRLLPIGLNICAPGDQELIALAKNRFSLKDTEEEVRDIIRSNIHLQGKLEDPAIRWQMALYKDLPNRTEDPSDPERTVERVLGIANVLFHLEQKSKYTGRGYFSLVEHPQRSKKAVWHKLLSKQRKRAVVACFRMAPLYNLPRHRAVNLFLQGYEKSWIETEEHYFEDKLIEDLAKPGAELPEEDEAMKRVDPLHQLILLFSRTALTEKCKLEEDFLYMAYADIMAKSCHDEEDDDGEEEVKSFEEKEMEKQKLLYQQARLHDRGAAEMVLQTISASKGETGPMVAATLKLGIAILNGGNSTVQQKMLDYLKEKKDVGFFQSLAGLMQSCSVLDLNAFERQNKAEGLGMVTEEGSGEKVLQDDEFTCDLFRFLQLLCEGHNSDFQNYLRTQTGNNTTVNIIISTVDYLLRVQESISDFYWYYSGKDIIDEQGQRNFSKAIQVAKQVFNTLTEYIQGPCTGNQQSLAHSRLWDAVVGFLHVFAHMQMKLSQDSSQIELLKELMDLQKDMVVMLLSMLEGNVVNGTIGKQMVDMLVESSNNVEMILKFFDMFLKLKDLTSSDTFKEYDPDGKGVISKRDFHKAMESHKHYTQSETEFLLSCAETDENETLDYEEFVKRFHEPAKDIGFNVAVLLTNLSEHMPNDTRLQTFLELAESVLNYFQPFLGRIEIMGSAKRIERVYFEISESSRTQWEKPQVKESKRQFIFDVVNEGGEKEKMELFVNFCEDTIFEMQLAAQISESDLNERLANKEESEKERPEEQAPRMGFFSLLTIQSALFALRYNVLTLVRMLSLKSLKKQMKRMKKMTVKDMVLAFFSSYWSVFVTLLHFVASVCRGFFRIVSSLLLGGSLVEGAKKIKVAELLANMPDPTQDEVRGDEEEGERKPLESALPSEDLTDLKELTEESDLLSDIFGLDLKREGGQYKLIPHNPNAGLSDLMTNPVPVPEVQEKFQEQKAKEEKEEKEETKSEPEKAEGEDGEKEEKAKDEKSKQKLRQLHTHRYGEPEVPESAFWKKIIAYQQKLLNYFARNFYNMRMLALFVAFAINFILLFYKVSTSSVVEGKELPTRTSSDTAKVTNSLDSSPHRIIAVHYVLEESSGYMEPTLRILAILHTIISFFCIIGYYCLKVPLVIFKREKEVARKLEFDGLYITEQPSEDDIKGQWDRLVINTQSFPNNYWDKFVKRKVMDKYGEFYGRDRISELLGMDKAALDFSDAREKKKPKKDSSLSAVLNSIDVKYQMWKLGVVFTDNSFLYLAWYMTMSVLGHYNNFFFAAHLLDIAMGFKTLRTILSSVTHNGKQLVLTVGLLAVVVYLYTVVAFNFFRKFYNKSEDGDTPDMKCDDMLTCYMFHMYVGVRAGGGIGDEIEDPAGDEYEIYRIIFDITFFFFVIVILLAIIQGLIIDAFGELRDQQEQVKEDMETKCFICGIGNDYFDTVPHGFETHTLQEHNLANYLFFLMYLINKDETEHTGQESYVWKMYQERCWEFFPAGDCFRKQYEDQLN
Excerpt: To assess the functional potency of novel agents for modulating RyR2 channel activity, we measured changes in Ca^2+ levels in ER of HEK-293 cells with inducible expression of wild-type RyR2 (WT RyR2).[33],[34] Because the expression of WT RyR2 introduces an additional spontaneous Ca^2+ leak from the ER, these cells are suitable for our purpose of testing potential RyR2 stabilizers.[35] The cells additionally stably express the Ca^2+ fluorescence indicator R-CEPIA1er, which is a genetically encoded sensor protein of Ca^2+ in the ER (the cell line was a gift from T. Murayama, Department of Pharmacology, Juntendo University School of Medicine, Tokyo, Japan).[36]
The addition of these compounds, which are known to inhibit excessive cardiac RyR2 activity, should reduce Ca^2+ leak from the ER, thus increasing the R-CEPIA1er fluorescence.
The fluorescence plate reader [Ca^2+]ER assay was performed according to the slightly modified protocol of Murayama and Kurebayashi.[36] […] After the cells were inducted with doxycycline for 24 h, changes in ER calcium concentrations [Ca^2+]ER were measured on a multiwell plate reader TECAN Spark 20 M at 37 °C. The 1000 × stock solutions of the test compounds were prepared in DMSO. Briefly, the culture medium was removed and 100 μL of Tyrode’s solution containing 2 mM CaCl2 was added to the cells. The time courses were recorded in each well. Fluorescence was evoked by a 560 nm excitation wavelength and collected in a bottom-read mode at 610 nm. Data was recorded every 10 s, exposure −20 flashes, excitation bandwidth −20 nm, emission bandwidth −20 nm. 100 μL of 0–100 μM solution of test compound in Tyrode’s solution containing 2 mM CaCl2 was injected in each well (speed 100 μL/s) at the 90 s time point. […] The 0.1 v/v% DMSO and 2 mM CaCl2 Tyrode’s solution was used as a control.
The dose–response curves were calculated using the software package GraphPad Prism version 8.3.1. (GraphPad Software, Inc.). All data are presented as mean ± SD in three independent experiments. Y = bottom + (top – bottom)/(1 + 10^((LogEC50 – X) × HillSlope)) was used, where HillSlope describes the steepness of the curve, and top and bottom are plateaus in the units of the Y-axis.

SERCA2a = target: T2, SERCA2a (Mus musculus, UniProt O55143); assay: Caffeine-induced Ca2+ release assay in HL-1 cells (FLIPR Calcium 6); assay type: cell-based; conditions: for SERCA2a HL-1 effect class: 10 μM (25 μM for 11d), caffeine assay; for effect on caffeine-induced Ca2+ release (in words): 2 h incubation at various concentrations
T2 construct: host or cells: HL-1 cells
Excerpt: It is known that caffeine stimulates the release of calcium from intracellular stores in cells by acting as a RyR activator.[39],[40] The binding site for caffeine is located on the cytosolic side of the protein between the C-terminal and the S2S3 domain.[41] When caffeine binds to RyR2, it interacts with specific amino acids on the protein, which causes conformational changes in the protein’s structure.[42] This opens the RyR2 channel pore, enabling the mass release of calcium ions from the SR. We investigated the effect of caffeine-induced Ca^2+ release in HL-1 cells treated with cytosolic Ca^2+ indicator FLIPR Calcium 6 (Molecular Devices). The HL-1 cell line is an immortalized mouse cardiomyocyte cell line commonly used to study the effects of various substances on cell function.[43] If the tested compound modulates SERCA2a activation, it will cause an increase in Ca^2+ concentration in the SR and the effect of a fixed dose of caffeine on SR Ca^2+ release will be potentiated by increasing doses of a proposed SERCA activator.[26] As a positive control, we used CDN1163, a small-molecule SERCA activator, which is at present in a clinical trial due to its potential therapeutic use for certain cardiac conditions.[27]
HL-1 cells (50,000 per well) were cultivated for 24 h in black-walled, clear-bottom 96-well microplates (Corning, Amsterdam, The Netherlands) covered with fibronectin/gelatin (Merck KGaA, Darmstadt, Germany) in a humidified incubator at 37 °C and 5% CO2.
Changes in Ca^2+ concentration were measured on a multiwell plate reader TECAN Spark 20 M using a FLIPR 6 Calcium Assay Kit from Molecular Devices (Molecular Devices LLC, München, Germany) at 37 °C. The 1000 × stock solutions of the test compounds were prepared in DMSO. A 100 μL solution of test compound in Tyrode’s solution containing FLIPR Calcium 6 dye was incubated for 2 h at 37 °C and 5% CO2 in a humidified incubator. The time courses were recorded in each well. Fluorescence was evoked at 485 nm excitation wavelength and read out in a bottom-read mode at 525 nm. Data were recorded every 2 s, exposure −20 flashes, excitation bandwidth −10 nm, emission bandwidth −15 nm. To initiate Ca^2+ influx, 25 μL of 50 mM caffeine solution in Tyrode’s solution containing 2 mM CaCl2 was injected in each well (speed 100 μL/s) at the 10 s time point, resulting in 10 mM final concentration in the well. The differences between the caffeine-induced peak minus basal fluorescence, ΔFCaff, were taken into account for the analysis. The Tyrode’s solution +0.1 v/v% DMSO was used as a control. The dose–response curves were calculated using the software package GraphPad Prism version 8.3.1. All data are presented as mean ± SD from eight independent experiments. Y = bottom + (top – bottom)/(1 + 10^((LogEC50 – X) × HillSlope)) was used, where HillSlope describes the steepness of the curve and top and bottom are plateaus in the units of the Y axis.

[1] = Membrane permeability, PermeaPad Plate (cell-free transport model); assay type: in vitro ADME; conditions: for Pe: 24 h, room temperature; for Pe class (low/medium/high; poor): class word printed beside Pe, no key given
Description: Membrane permeability was assessed using PermeaPad Plate according to the manufacturing procedure (innoME GmbH, Espelkamp, Germany). Briefly, 200 μL of water was added into the acceptor plate. 200 μL of 100–500 μM test compound in water was added directly to the well membranes of the donor plate. The donor plate contains a biomimetic membrane for simulating passive mass transfer through different barriers in the body. Then, the donor plate was placed into the acceptor plate wells and incubated at room temperature for 24 h in the dark. To determine the peak absorbance of test compounds, absorbance spectra of acceptor solutions and initial solutions for each test compound were read out. The permeability rate (Pe) was calculated using the formula:
[drawing 1] , where ODA is the absorbance of acceptor solution and ODE is the absorbance of the standard solution; if the compound is able to permeabilize the membrane and fully reach equilibrium, 250 μM will be the final concentration of solution in the donor and acceptor wells. The coefficient C was calculated using the formula:
[drawing 2] , where VA is the acceptor volume (cm^3), VD is the donor volume (cm^3), the membrane area is 0.24 cm^2, and the time is 86,400 s.

Structure (SMILES)	RyR2 effect class (RyR2)	SERCA2a HL-1 effect class (SERCA2a)	effect on caffeine-induced Ca2+ release (in words) (SERCA2a; HL-1 cells, 10 mM caffeine)	Pe [1]	Pe class (low/medium/high; poor) [1]	EC50 (RyR2)	effect on [Ca2+]ER / R-CEPIA1er fluorescence (F/F0) (RyR2)	dose response of F/F0 ([Ca2+]ER) (RyR2; concentration range 10^–11 to 10^–4 M)	EC50 (SERCA2a; HL-1 cells, 10 mM caffeine, value, interval)
COc1ccc2c(c1)CN(CCCCNCCCCC1(O)CC1)CCS2 [11a, 1-(4-((4-(7-Methoxy-2,3-dihydrobenzo[1,4-f]thiazepin-4(5H)-yl)butyl)amino)butyl)cyclopropan-1-ol]	++	+	most potent	0.8 10^–6 cm/s	poor permeability and low	–	–	–	–
COc1ccc(OCCCNCCCCC2(O)CC2)cc1 [11b, 1-(4-((3-(4-Methoxyphenoxy)propyl)amino)butyl)cyclopropan-1-ol]	+++	++	–	4.0 10^–6 cm/s	high	81.5 nM	–	–	–
COc1ccc(SCCCNCCCCC2(O)CC2)cc1 [11c, 1-(4-((3-((4-Methoxyphenyl)thio)propyl)amino)butyl)cyclopropan-1-ol]	++	++	–	6.9 10^–6 cm/s	high	10.2 nM	–	–	–
COc1ccc2c(c1)CN(CCCCC1(O)CC1)CCS2 [11d, 1-(4-(7-Methoxy-2,3-dihydrobenzo[1,4-f]thiazepin-4(5H)-yl)butyl)cyclopropan-1-ol]	–	+	least efficacious; also recorded: no saturation effect at concentrations up to 50 μM; also recorded: slight	3.6 10^–6 cm/s	high	–	no significant RyR2-stabilizing effect	–	–
COc1ccc2c(c1)CN(CCCCN(CCCCC1(O)CC1)CCCCC1(O)CC1)CCS2 [12a, 1,1′-(((4-(7-Methoxy-2,3-dihydrobenzo[1,4-f]thiazepin-4(5H)-yl)butyl)azanediyl)bis(butane-4,1-diyl))bis(cyclopropan-1-ol)]	+++	++	–	0.6 10^–6 cm/s	poor permeability and low	–	–	most pronounced effect of all of the other compounds	9200 nM
COc1ccc(SCCCN(CCCCC2(O)CC2)CCCCC2(O)CC2)cc1 [12c, 1,1′-(((3-((4-Methoxyphenyl)thio)propyl)azanediyl)bis(butane-4,1-diyl))bis(cyclopropan-1-ol)]	+	+++ and ++	most efficacious; also recorded: stronger activating effect on caffeine-induced Ca^2+ release at concentrations above 10 μM	3.6 10^–6 cm/s	high	18.6 nM	–	–	–
COc1ccc2c(c1)CN(Cc1ccc(C(=O)O)cc1)CCS2 [ARM210, reference compound]	++	+	clear concentration-dependent effect	6.8 10^–6 cm/s	high	–	significantly increased [Ca^2+]ER	–	–
